# Measured values from US20240300886A1, “ARYLCYCLOHEXYLAMINE DERIVATIVES AND THEIR USE IN THE TREATMENT OF PSYCHIATRIC DISORDERS” (GILGAMESH PHARMACEUTICALS, INC., priority 2021, published 2024).
# Like-named read-outs stand apart in the source and are kept apart here.
# Assays:
# [1] = Metabolic stability in Gottingen minipig liver microsomes (MPLM); type: in vitro ADME, Gottingen minipigs; conditions: pooled minipig liver microsomes, pH 7.4, 1 μM compound, 0.50 mg protein/mL, NADPH
# Protocol: (§1) MPLM Stability. Pooled MPLM from Gottingen minipigs (Xenotech Z6000) were used. Microsomal incubations were carried out in multi-well plates. Liver microsomal incubation medium consisted of PBS (100 mM pH 7.4), MgCl2 (1 mM), and NADPH (1 mM), with 0.50 mg of liver microsomal protein per mL. Control incubations were performed by replacing the NADPH-cofactor system with PBS. Test compounds (1 μM, final solvent concentration 1.0%) were incubated with microsomes at 37° C. with constant shaking. Six time points over 60 minutes were analyzed, with 60 μL aliquots of the reaction mixture being drawn at each time point. The reaction aliquots were stopped by adding 180 μL of cold (4° C.) acetonitrile containing 200 ng/mL tolbutamide and 200 ng/mL labetalol as internal standards (IS), followed by shaking for 10 minutes, and then protein sedimentation by centrifugation at 4,000 rpm for 20 minutes at 4° C. Supernatant samples (80 μL) were diluted with water (240 μL) and analyzed for parent compound remaining using a fit-for-purpose liquid chromatography-tandem mass spectrometry (LC-MS/MS) method.
# (§2) Data Analysis. The elimination constant (kel), half-life (t1/2) and intrinsic clearance (Clint) were determined in a plot of […] versus time, using linear regression analysis.
# [2] = Metabolic stability in cynomolgus monkey liver microsomes (CLM); type: in vitro ADME, cynomolgus monkeys; conditions: for half-life at 1 μM / microsomal CLint at 1 μM: male, cynomolgus monkey, pooled cynomolgus monkey liver microsomes, pH 7.4, 1 μM compound, 0.50 mg protein/mL, NADPH
# Protocol: as §1, with “CLM Stability.” for “MPLM Stability.”, “Pooled CLM” for “Pooled MPLM”, “from male cynomolgus monkeys (Corning 452413)” for “from Gottingen minipigs (Xenotech Z6000)”, “(100 mM,” for “(100 mM”
# as §2
# [3] = Oral bioavailability in rats, Method B (plasma and brain PK); type: in vivo, Sprague Dawley rats; conditions: for half-life / Cmax / AUC(0-inf): male, Sprague Dawley; for half-life / Cmax / AUC(0-inf) / AUC0-inf (iv) / AUC0-inf (po) / F: Method B; for AUC(0-inf) / AUC0-inf (iv) / AUC0-inf (po): values represent AUC0-last; for F: 1 mg/kg
# Protocol: Animals. Male Sprague Dawley rats were used in these studies. Animals were randomly assigned to treatment groups and were fasted for 4 h before dosing.
# Drugs. Test compounds were dissolved in a vehicle consisting of normal saline (for compounds used as the HCl salt) or normal saline slightly acidified with aq. HCl (for freebase compounds). They were then administered intravenously (iv) or orally (po) at a dose of […] (calculated based on freebase), as indicated, and at a volume of 5 mL/kg body weight. Compounds were tested as the racemates or pure enantiomers, as indicated.
# Sample Collection and Bioanalysis. Blood samples (approximately 60 μL) were collected under light isoflurane anesthesia (Surgivet®) from the retro orbital plexus at 0.08, 0.25, 0.5, 1, 2, 4, 8, and 24 h (4 animals per time point). Immediately after blood collection, plasma was harvested by centrifugation at 4,000 rpm for 10 min at 4° C. and samples were stored at −70±10° C. until bioanalysis. Following blood collection, animals were immediately sacrificed, the abdominal vena-cava was cut open, and the whole body was perfused from the heart using 10 mL of normal saline, and brain samples were collected from all animals. After isolation, brain samples were rinsed three times in ice-cold normal saline (for 5-10 seconds/rinse using ˜-5-10 mL normal saline in disposable petri dish for each rinse) and dried on blotting paper. Brain samples were homogenized using ice-cold phosphate-buffered saline (pH 7.4). Total homogenate volume was three times the tissue weight. All homogenates were stored at −70±10° C. until bioanalysis. For bioanalysis, 25 μL aliquots of plasma/brain study samples or spiked plasma/brain calibration standards were added to individual pre-labeled micro-centrifuge tubes followed by 100 μL of an internal standard solution (glipizide, 500 ng/mL in acetonitrile) except for blanks, where 100 μL of acetonitrile was added. Samples were vortexed for 5 minutes and then centrifuged for 10 minutes at 4,000 rpm at 4° C. Following centrifugation, 100 μL of each clear supernatant was transferred to a 96 well plate and analyzed with a fit-for-purpose LC-MS/MS method, with authentic samples of each analyte used for calibration and identification.
# Data Analysis. Pharmacokinetic parameters were estimated using the non-compartmental analysis tool of Phoenix® WinNonlin software (Ver 8.0).
# [4] = biological target: MK-801 binding site of the N-methyl-D-aspartate receptor (NMDAR); assay: NMDA receptor radioligand binding with [3H]MK-801; set-up: species or system Wistar rat; conditions: for Ki: [3H]MK-801 displacement, Wistar rat brain (minus cerebellum), read-out: NMDAR Ki (95% CI)
# Protocol: The binding affinities of disclosed compounds at the MK-801 binding site of the N-methyl-D-aspartate receptor (NMDAR) were determined in radioligand binding experiments (Table 13).
# Radioligand Binding. Affinity of the test compounds for NMDAR was determined in radioligand binding experiments with [^3H]MK-801 by Eurofins Panlabs, Inc., using methods adapted from the literature (Javitt el al. 1987; Reynolds et al. 1989) and under the conditions described in Table 14.
# [5] = rat brain, 1 mg/kg iv, read-out: t1/2 (iv)
# [6] = rat brain, 1 mg/kg po, read-out: t1/2 (po)
# [7] = rat plasma, 1 mg/kg iv, read-out: t1/2 (iv)
# [8] = rat plasma, 1 mg/kg iv, read-out: AUC0-inf (iv) (converted)
# [9] = rat plasma, 1 mg/kg po, read-out: t1/2 (po)
# [10] = rat plasma, 1 mg/kg po, read-out: AUC0-inf (po) (converted)
# [11] = rat brain, calculated based on brain exposure (AUC0-last)
structure (smiles),measurement,setting,value
"CNC1(c2ccccc2Cl)CCCCC1=O (racemic) [racemic ketamine, ketamine]",half-life at 1 μM,[1],0.107 h
same,microsomal CLint at 1 μM,[1],218 µL/min/mg
"N[C@]1(c2ccc(F)cc2)CCCCC1=O [Compound 1S, (S)-2-amino-2-(4-fluorophenyl)cyclohexan-1-one]",half-life at 1 μM,[2],> 2.42 h
same,microsomal CLint at 1 μM,[2],< 9.6 µL/min/mg
same,half-life at 1 μM,[1],> 2.42 h
same,microsomal CLint at 1 μM,[1],< 9.6 µL/min/mg
same,half-life,[3]; [5],4.09 h
same,Cmax,"[3]; rat brain, 1 mg/kg po",167 ng/g
same,half-life,[3]; [6],7.11 h
same,half-life,[3]; [7],2.58 h
same,AUC(0-inf),[3]; [8],805 ng·h/mL
same,Cmax,"[3]; rat plasma, 1 mg/kg po",234 ng/mL
same,half-life,[3]; [9],3.88 h
same,AUC(0-inf),[3]; [10],1140 ng·h/mL
same,AUC0-inf (iv),"[3]; rat brain, 1 mg/kg iv",126462 ng·min/g
same,AUC0-inf (po),"[3]; rat brain, 1 mg/kg po",79272.6 ng·min/g
same,F,[3]; [11],62.7%
same,F,"[3]; rat plasma, based on AUC0-last",>100%
same,Ki,[4],1700 nM
"CN[C@@]1(c2ccc(F)cc2)CCCCC1=O [Compound 2R, (R)-2-(4-fluorophenyl)-2(methylamino)cyclohexan-1-one]",stability in CLM (in words),[2],substantially more stable
same,half-life at 1 μM,[2],1.04 h
same,microsomal CLint at 1 μM,[2],22.2 µL/min/mg
same,half-life at 1 μM,[1],0.633 h
same,microsomal CLint at 1 μM,[1],36.5 µL/min/mg
same,half-life,[3]; [5],0.0633 h
same,Cmax,"[3]; rat brain, 1 mg/kg po",42.8 ng/g
same,half-life,[3]; [6],0.99 h
same,half-life,[3]; [7],2.77 h
same,AUC(0-inf),[3]; [8],163 ng·h/mL
same,Cmax,"[3]; rat plasma, 1 mg/kg po",17.7 ng/mL
same,half-life,[3]; [9],1.58 h
same,AUC(0-inf),[3]; [10],50.3 ng·h/mL
same,AUC0-inf (iv),"[3]; rat brain, 1 mg/kg iv",27152.4 ng·min/g
same,AUC0-inf (po),"[3]; rat brain, 1 mg/kg po",4915.8 ng·min/g
same,F,[3]; [11],18.1%
same,F,"[3]; rat plasma, based on AUC0-last",31%
same,brain exposure after oral administration compared to enantiomer 2S,[3]; rats,substantially higher brain exposure
same,NMDAR binding potency relative to enantiomer 2S (less potent),[4]; MK-801 site of NMDAR,~3 fold
same,Ki,[4],3300 nM
"CN[C@]1(c2ccc(F)cc2)CCCCC1=O [Compound 2S, (S)-2-(4-fluorophenyl)-2-(methylamino)cyclohexan-1-one]",half-life at 1 μM,[2],0.638 h
same,microsomal CLint at 1 μM,[2],36.1 µL/min/mg
same,half-life at 1 μM,[1],0.515 h
same,microsomal CLint at 1 μM,[1],44.9 µL/min/mg
same,half-life,[3]; [5],0.7 h
same,Cmax,"[3]; rat brain, 1 mg/kg po",47.6 ng/g
same,half-life,[3]; [7],0.7 h
same,AUC(0-inf),[3]; [8],186 ng·h/mL
same,Cmax,"[3]; rat plasma, 1 mg/kg po",32.3 ng/mL
same,half-life,[3]; [9],1.46 h
same,AUC(0-inf),[3]; [10],37.8 ng·h/mL
same,AUC0-inf (iv),"[3]; rat brain, 1 mg/kg iv",68000.4 ng·min/g
same,AUC0-inf (po),"[3]; rat brain, 1 mg/kg po",3067.2 ng·min/g
same,F,[3]; [11],4.5%
same,F,"[3]; rat plasma, based on AUC0-last",20%
same,Ki,[4],1200 nM
N[C@]1(c2cccc(F)c2)CCCCC1=O [Compound 3S],half-life at 1 μM,[2],1.4 h
same,microsomal CLint at 1 μM,[2],16.6 µL/min/mg
same,half-life at 1 μM,[1],> 2.42 h
same,microsomal CLint at 1 μM,[1],< 9.6 µL/min/mg
same,Ki,[4],1700 nM
